“And” between values parts separate entries of the source, which are not always exact repeats. Equal entries are not always repeated.
Tested on: Trypanosoma brucei brucei
Assay: microbe, parasite or virus in culture
Type: functional, organism-based, STIB 795
Conditions: not given

Row | IC50 | SMILES
1 | 5.11 µM and 1.33 µM | O=C1CC(n2nnn(C3CCCCC3)c2=S)C2COC1O2 (centres undefined)

Same assay, conditions: Trypanosoma brucei, STIB 795

Row | SMILES | IC50 [µM]
2 | CC(C)(C)c1cc(C(c2ccncc2)N2CCCC2)cc(C(C)(C)C)c1O (centres undefined) | > 10.4
3 | Brc1ccc(C2Nc3cccc4cccc(c34)N2)o1 | > 10.4
4 | CN1CCN(C2Cc3ccccc3Sc3cc(C(F)(F)F)ccc32)CC1 (centres undefined) | > 10.4
5 | CC1CCN(S(=O)(=O)c2ccc3c4c2CC(=O)N4CC(C)S3)CC1 (centres undefined) | > 10.4
6 | C=CCN1C(=O)c2[nH]nc(-c3c(C)cc(C)cc3O)c2C1c1ccc(F)cc1 (centres undefined) | > 10.4
7 | CCOc1cc(CNC2CCCC2)cc(Cl)c1OCc1ccccc1 | > 10.4
8 | CCOC(=O)C1=C(C)NC(SCC(=O)c2ccccc2)=C(C#N)C1CC(C)C (centres undefined) | > 10.4
9 | COc1cc(NS(=O)(=O)c2ccc(C)cc2)c2ncccc2c1 | > 10.4
10 | COc1ccc(C(=O)CC(SCCO)c2ccc(F)cc2)cc1OC (centres undefined) | > 10.4
11 | Clc1ccc(C(=C2CN3CCC2CC3)c2ccc(Cl)s2)s1 | > 10.4
12 | Cc1cc(Br)cc(/C=N/NC(=O)c2ccncc2)c1O | > 10.4
13 | COc1ccccc1CCNCc1ccc(OC)c(OCc2ccccc2)c1 | > 10.4
14 | CC(C)(C)N(NC(=O)Nc1ccc(Cl)cc1)C(=O)c1ccccc1F | > 10.4
15 | CCn1c2ccccc2c2cc(CNCCc3ccc(OC)c(OC)c3)ccc21 | > 10.4
16 | C1CCC(Nc2nc3nonc3nc2NC2CCCCC2)CC1 | > 10.4
17 | c1ccc(Nc2n[n+](-c3ccccc3)nc3ccccc23)cc1 | > 10.4
18 | CSc1cccc(C(=O)Nc2cc(F)c(F)cc2Cl)c1 | > 10.4
19 | Cc1ccc(C(CNC(=O)COc2ccc(Cl)cc2)N2CCCC2)cc1 (centres undefined) | > 10.4
20 | CN(C)c1ccc(/C=N/Nc2cc(N3CCCC3)nc(N3CCCC3)n2)cc1 | > 10.4
21 | N=C(NOC(=O)c1cccc(Cl)c1)c1cccnc1 | > 10.4
22 | OC(C#CCN1CCOCC1)(c1ccc(Cl)cc1)c1cccc(Cl)c1 (centres undefined) | > 10.4
23 | N#CC1=C(N)OC2=C(CC/C2=C\c2ccccc2Cl)C1c1ccccc1Cl (centres undefined) | > 10.4
24 | COc1ccc(C(=O)O/N=C(\N)c2cccnc2)cc1 | > 10.4
25 | O=C(Nc1ccnc(Cl)c1)NC12CC3CC(CC(C3)C1)C2 | > 10.4
26 | COc1cc2c(cc1Cl)/C(=C\CCN(C)C)c1ccccc1S2 | > 10.4
27 | O=C(CCN1CCC(c2ccccc2)C1)c1ccco1 (centres undefined) | > 10.4
28 | OC(CNCCc1ccccc1)CN1c2ccccc2Sc2ccccc21 (centres undefined) | > 10.4
29 | CN(C)CCCC1(C)Oc2ccccc2Sc2ccccc21 (centres undefined) | > 10.4

The next lines start with the values.

Row | IC50 [µM] | SMILES
30 | > 10.4 | Oc1ccccc1/C=N\NC(=S)Nc1ccc(F)cc1
31 | > 10.4 | Cc1cccc(/C=N\Nc2nncc(-c3ccccc3)n2)n1
32 | > 10.4 | O=c1oc2c(cc(NS(=O)(=O)c3ccc(F)cc3)c3ccccc32)s1
33 | > 10.4 | [H]/N=C(/N)SCc1nc2n(Cc3ccccc3)c3ccccc3n2c1C(=O)OC
34 | > 10.4 | C=CCNC(=O)CCCc1nc2cccnc2n1Cc1ccc(F)cc1
35 | > 10.4 | Oc1ccc(CN2CCC(Cc3ccccc3)CC2)c2cccnc12
36 | > 10.4 | O=C(O)CSc1cc(NS(=O)(=O)c2ccccc2)c2ccccc2c1O
37 | > 10.4 | O=C(/C=C/c1ccc(F)cc1)n1cnc2ccccc21
38 | > 10.4 | Oc1ccc(/N=N/c2ccccc2C(F)(F)F)c2cccnc12
39 | > 10.4 | Nc1ccccc1S(=O)(=O)Nc1cccc2cccnc12
40 | > 10.4 | CCOC(=O)c1sc(=S)n(-c2ccccc2CC)c1N
41 | > 10.4 | O=C(CSc1nc2[nH]ncc2c(=O)n1-c1ccccc1)Nc1nccs1
42 | > 10.4 | O=C1C(=O)c2c(C(=O)c3cccs3)coc2-c2ccccc21
43 | > 10.4 | N#CC(c1ccc(Cl)cc1Cl)c1cnnc2ccccc12 (centres undefined)
44 | > 10.4 | COc1cc(C(CC(=O)c2ccco2)Sc2ccccc2)cc(OC)c1OC (centres undefined)
45 | > 10.4 | O=c1c2ccccc2nc(SCc2cccnc2)n1Cc1ccco1
46 | > 10.4 | O=C1C(O)=C/C(=N/c2ccc(Cc3ccncc3)cc2)c2ccccc21
47 | > 10.4 | CC(C)CNC(=O)Nc1cccc(-c2noc(C3(c4ccccc4)CC3)n2)c1
48 | > 10.4 | O=C(N/N=C/c1ccc(O)c2ncccc12)c1ccc(F)cc1
49 | > 10.4 | CCOc1cc2c(cc1OCC)C(c1ccccc1)N(c1ccccc1)C(=O)C2 (centres undefined)
